Consider five compounds from ChEMBL document CHEMBL1145498, “A systematic interaction map of validated kinase inhibitors with Ser/Thr kinases” (Proc Natl Acad Sci U S A, 2007).

The target in assay [1] is Calcium/calmodulin-dependent protein kinase type II subunit alpha (Homo sapiens) (UniProt Q9UQM7).
The target in assay [2] is Calcium/calmodulin-dependent protein kinase type II subunit delta (Homo sapiens) (UniProt Q13557).
For assay [3], the target named is Calcium/calmodulin-dependent protein kinase kinase 2 (Homo sapiens, UniProt Q96RR4).
The target of assay [4] is Cyclin-dependent kinase-like 1 (Homo sapiens) (UniProt Q00532).
Assay [5] has as its target Dual specificity protein kinase CLK1 (Homo sapiens) (UniProt P49759).
Assay [6] deals with Dual specificity protein kinase CLK2 (Homo sapiens) (UniProt P49760).
The target of assay [7] is Dual specificity protein kinase CLK3 (Homo sapiens) (UniProt P49761).
Assay [8] addresses Casein kinase I isoform gamma-1 (Homo sapiens) (UniProt Q9HCP0).
The target of assay [9] is Casein kinase I isoform gamma-3 (Homo sapiens) (UniProt Q9Y6M4).
In assay [10] the target is Serine/threonine-protein kinase Nek6 (Homo sapiens) (UniProt Q9HC98).
In assay [11] the target is Serine/threonine-protein kinase OSR1 (Homo sapiens) (UniProt O95747).
Assay [12] deals with T1, 3-phosphoinositide-dependent protein kinase 1 (Homo sapiens) (UniProt O15530).
T1 sequence (whole entry): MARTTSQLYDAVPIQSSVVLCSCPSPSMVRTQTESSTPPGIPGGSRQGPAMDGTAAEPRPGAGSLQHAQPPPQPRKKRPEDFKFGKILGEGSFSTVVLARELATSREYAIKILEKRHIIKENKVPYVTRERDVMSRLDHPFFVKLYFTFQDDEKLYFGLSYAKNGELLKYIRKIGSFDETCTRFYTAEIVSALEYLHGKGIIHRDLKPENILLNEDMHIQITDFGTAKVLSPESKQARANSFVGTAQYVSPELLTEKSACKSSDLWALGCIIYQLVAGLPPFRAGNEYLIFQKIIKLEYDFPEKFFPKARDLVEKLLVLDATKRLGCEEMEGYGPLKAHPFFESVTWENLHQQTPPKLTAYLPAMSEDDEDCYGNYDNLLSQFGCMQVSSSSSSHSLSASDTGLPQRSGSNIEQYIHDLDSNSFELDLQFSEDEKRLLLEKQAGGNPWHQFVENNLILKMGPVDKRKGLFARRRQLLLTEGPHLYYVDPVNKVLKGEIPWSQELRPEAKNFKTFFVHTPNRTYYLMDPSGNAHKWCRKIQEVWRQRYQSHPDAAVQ

In assay [13] the target is T2, Serine/threonine-protein kinase PLK4 (Homo sapiens) (UniProt O00444).
T2 sequence (whole entry): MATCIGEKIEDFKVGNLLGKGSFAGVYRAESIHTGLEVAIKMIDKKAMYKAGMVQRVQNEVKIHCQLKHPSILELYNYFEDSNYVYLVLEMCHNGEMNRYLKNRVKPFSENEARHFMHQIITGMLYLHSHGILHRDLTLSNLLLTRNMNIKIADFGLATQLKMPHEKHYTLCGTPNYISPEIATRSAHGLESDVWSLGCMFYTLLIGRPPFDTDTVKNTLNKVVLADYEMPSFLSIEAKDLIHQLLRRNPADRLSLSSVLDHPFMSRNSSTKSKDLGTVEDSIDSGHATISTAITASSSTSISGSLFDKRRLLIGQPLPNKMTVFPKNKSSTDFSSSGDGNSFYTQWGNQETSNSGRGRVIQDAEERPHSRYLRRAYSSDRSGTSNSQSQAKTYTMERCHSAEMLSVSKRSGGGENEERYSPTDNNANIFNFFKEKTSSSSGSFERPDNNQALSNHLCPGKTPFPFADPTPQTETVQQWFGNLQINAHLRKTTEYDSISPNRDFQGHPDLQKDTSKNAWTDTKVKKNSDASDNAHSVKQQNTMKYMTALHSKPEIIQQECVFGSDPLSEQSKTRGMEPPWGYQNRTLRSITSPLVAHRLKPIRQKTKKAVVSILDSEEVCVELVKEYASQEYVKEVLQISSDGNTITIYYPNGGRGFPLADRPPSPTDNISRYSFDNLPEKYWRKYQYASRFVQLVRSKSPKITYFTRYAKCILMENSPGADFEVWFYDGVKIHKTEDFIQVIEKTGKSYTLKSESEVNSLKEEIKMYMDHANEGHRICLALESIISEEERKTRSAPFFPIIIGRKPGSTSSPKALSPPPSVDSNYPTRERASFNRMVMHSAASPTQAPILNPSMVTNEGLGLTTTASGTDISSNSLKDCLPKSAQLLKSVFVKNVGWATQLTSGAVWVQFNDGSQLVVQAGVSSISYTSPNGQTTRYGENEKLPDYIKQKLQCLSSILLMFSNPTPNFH

For assay [14], the target named is Serine/threonine-protein kinase 16 (Homo sapiens) (UniProt O75716).
In assay [15] the target is T3, Serine/threonine-protein kinase 17A (Homo sapiens) (UniProt Q9UEE5).
T3 sequence (whole entry): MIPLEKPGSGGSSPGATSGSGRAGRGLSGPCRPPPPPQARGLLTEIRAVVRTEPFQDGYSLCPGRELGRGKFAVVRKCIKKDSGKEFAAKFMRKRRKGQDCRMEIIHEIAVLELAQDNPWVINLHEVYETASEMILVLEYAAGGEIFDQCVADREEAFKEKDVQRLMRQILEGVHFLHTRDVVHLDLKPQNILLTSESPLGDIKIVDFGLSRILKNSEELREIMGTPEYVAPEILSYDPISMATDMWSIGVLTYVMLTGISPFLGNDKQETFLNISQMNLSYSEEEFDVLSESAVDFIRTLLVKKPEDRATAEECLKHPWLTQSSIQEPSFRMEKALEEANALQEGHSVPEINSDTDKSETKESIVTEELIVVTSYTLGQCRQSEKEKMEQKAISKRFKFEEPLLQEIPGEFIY

Assay [16] deals with Serine/threonine-protein kinase VRK2 (Homo sapiens) (UniProt Q86Y07).
The target of assay [17] is Serine/threonine-protein kinase 25 (Homo sapiens) (UniProt O00506).
Chain of Serine/threonine-protein kinase 25 (Homo sapiens) (O00506 whole entry, looked up): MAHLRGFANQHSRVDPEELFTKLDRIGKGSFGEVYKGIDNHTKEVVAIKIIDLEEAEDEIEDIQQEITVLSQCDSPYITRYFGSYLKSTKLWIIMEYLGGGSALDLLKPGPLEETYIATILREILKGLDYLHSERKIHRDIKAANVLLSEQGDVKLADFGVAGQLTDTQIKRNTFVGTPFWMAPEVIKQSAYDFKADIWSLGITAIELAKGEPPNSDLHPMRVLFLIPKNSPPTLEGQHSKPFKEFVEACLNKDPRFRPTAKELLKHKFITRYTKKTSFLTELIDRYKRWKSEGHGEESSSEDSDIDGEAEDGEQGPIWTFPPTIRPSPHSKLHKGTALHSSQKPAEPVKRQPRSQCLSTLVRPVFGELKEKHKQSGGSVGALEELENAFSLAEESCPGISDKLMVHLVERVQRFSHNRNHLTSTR

Chain of Calcium/calmodulin-dependent protein kinase type II subunit delta (Homo sapiens) (Q13557 whole entry): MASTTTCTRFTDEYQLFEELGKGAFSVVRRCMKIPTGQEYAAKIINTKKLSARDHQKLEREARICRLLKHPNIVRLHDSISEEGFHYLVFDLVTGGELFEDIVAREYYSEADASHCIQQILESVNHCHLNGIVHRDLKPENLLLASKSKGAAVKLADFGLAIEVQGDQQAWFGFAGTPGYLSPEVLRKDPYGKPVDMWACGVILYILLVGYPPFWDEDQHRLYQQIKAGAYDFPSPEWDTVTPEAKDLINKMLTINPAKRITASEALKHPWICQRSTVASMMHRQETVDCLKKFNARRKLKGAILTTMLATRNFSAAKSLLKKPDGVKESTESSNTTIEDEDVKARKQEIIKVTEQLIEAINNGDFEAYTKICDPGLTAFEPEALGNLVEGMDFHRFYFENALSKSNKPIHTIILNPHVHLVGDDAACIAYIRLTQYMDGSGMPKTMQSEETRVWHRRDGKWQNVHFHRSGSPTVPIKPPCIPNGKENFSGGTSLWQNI
Chain of Dual specificity protein kinase CLK1 (Homo sapiens) (P49759 whole entry, looked up): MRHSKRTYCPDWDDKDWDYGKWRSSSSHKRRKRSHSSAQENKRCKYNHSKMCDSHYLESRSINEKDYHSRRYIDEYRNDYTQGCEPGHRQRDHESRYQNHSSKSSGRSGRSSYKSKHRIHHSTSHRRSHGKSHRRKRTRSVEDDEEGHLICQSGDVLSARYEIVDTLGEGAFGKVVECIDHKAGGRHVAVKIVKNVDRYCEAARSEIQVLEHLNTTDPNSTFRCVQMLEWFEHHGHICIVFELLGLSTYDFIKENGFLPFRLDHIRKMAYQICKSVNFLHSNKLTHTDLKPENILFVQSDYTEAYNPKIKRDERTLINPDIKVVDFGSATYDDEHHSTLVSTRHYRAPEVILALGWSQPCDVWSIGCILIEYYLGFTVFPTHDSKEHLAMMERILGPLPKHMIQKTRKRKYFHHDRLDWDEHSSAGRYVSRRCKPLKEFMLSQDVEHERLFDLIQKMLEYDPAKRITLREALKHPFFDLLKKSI
Chain of Serine/threonine-protein kinase 16 (Homo sapiens) (O75716 whole entry): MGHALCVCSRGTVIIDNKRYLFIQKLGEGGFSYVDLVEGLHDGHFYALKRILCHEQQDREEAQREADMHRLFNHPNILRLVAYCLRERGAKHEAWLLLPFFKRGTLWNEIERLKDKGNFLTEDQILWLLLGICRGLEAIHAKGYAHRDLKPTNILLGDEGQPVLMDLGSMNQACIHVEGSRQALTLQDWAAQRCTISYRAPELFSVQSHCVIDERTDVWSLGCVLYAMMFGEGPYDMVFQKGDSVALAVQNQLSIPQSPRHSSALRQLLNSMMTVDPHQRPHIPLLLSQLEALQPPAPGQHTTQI
Chain of Casein kinase I isoform gamma-1 (Homo sapiens) (Q9HCP0 whole entry, looked up, canonical isoform): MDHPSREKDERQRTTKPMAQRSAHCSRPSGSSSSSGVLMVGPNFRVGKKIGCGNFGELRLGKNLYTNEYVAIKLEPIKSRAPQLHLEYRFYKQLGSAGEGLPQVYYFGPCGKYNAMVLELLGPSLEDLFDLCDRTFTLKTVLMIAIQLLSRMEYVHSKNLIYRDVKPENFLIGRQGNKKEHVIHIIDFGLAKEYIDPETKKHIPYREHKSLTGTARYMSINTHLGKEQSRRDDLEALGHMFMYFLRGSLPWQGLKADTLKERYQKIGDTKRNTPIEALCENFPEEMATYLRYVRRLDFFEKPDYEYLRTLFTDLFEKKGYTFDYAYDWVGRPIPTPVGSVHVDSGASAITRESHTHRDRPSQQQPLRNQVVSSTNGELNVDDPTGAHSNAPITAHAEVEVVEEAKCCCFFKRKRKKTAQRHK
Chain of Cyclin-dependent kinase-like 1 (Homo sapiens) (Q00532 whole entry): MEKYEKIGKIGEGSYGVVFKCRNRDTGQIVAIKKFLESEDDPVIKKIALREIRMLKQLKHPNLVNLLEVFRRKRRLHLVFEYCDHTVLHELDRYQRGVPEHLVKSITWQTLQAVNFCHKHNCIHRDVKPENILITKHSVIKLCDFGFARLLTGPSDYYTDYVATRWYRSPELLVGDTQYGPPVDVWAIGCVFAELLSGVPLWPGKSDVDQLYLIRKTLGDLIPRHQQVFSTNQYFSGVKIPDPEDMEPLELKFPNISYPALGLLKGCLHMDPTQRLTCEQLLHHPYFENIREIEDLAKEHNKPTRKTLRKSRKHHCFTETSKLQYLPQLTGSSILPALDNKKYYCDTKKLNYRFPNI
Chain of Calcium/calmodulin-dependent protein kinase kinase 2 (Q96RR4 2-588 limits assumed): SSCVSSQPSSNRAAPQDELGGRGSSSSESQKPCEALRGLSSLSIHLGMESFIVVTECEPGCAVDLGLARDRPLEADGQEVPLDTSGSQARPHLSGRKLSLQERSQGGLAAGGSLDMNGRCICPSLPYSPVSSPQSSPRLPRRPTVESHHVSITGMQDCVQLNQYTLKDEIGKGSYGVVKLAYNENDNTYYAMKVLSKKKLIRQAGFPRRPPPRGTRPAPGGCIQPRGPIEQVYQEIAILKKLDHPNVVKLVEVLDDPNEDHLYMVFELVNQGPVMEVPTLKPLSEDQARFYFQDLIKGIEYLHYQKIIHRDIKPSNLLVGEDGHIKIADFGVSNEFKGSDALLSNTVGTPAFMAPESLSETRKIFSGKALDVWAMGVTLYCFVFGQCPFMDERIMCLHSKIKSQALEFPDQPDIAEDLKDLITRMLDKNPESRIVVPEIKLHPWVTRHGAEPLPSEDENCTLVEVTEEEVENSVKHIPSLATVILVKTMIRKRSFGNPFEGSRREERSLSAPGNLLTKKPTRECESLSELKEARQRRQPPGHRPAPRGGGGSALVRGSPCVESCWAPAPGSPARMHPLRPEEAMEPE
Chain of Serine/threonine-protein kinase OSR1 (Homo sapiens) (O95747 2-527 limits assumed): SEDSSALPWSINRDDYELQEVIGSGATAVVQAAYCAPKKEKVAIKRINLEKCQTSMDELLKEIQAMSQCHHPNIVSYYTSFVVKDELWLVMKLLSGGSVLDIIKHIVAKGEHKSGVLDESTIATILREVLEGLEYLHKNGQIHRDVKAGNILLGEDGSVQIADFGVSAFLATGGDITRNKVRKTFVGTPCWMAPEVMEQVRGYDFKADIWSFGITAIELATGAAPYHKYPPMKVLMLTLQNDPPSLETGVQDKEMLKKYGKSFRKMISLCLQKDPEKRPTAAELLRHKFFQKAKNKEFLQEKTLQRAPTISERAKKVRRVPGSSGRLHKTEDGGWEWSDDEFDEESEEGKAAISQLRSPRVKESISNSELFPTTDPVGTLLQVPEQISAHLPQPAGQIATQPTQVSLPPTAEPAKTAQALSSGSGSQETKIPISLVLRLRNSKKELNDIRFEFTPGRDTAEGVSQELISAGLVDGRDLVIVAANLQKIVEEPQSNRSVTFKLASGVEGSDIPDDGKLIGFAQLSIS
Chain of Calcium/calmodulin-dependent protein kinase type II subunit alpha (Homo sapiens) (Q9UQM7 whole entry): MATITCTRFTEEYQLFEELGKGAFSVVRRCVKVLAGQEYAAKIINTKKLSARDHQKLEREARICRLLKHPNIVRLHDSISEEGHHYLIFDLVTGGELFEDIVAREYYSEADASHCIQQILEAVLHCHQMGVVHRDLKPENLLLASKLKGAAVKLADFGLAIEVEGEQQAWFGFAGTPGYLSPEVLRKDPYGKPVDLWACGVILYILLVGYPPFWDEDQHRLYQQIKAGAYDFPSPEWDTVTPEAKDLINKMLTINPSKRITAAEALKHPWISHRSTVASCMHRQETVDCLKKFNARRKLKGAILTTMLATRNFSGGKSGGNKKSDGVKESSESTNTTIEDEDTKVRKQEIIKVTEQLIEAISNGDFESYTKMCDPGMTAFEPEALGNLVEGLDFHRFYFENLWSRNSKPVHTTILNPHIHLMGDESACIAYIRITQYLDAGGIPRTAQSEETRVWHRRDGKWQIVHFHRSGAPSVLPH
Chain of Dual specificity protein kinase CLK2 (Homo sapiens) (P49760 whole entry, looked up): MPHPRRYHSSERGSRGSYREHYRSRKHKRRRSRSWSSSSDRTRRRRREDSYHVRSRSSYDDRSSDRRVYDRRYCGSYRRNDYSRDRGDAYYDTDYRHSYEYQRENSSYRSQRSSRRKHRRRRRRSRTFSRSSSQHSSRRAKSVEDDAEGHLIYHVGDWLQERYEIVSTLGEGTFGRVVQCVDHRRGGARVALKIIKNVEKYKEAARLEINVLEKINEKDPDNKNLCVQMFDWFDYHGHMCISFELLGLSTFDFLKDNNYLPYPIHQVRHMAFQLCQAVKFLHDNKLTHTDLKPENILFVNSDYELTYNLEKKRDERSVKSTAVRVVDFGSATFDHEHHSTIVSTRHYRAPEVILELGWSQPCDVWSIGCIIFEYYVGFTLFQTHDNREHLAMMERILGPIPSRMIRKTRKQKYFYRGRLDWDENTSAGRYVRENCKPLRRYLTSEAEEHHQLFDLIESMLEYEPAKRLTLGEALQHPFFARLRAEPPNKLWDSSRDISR
Chain of Serine/threonine-protein kinase Nek6 (Homo sapiens) (Q9HC98 whole entry): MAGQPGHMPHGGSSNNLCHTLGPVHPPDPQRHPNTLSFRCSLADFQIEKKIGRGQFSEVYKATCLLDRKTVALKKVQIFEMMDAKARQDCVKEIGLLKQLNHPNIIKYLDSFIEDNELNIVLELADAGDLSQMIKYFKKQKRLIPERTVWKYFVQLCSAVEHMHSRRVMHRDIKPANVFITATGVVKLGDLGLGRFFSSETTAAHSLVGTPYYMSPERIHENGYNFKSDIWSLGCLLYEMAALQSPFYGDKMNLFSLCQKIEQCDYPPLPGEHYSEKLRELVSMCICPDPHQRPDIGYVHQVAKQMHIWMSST

In general, ΔTm refers to the change in melting temperature against a reference sample. Consider `C=CNC#N`, for which the ΔTm was 0.7 °C in [1]; 0.7 °C in [2]; 0.9 °C in [3]; -0.1 °C in assay [4]; 0.8 °C in assay [5]; 0.6 °C in assay [6]. The thermal shift (ΔTm) is 0.2 °C in assay [7]; 0.7 °C in assay [8]; 0.8 °C in assay [9]; -0.2 °C in [10]; 0 °C in assay [11]; -0.1 °C in assay [12]. Further, the ΔTm amounted to 0.1 °C in assay [13]; 0 °C in assay [14]; 0.7 °C in [15]; 0.2 °C in [16]; 0.4 °C in [17].

For the compound `N#CC(C#N)=Cc1ccc(O)c(O)c1` [TYRPHOSTIN 23], the ΔTm is 0.2 °C in assay [1]; 0.4 °C in assay [2]; -0.7 °C in assay [3]; -0.1 °C in [4]; 0.7 °C in assay [5]; 0.1 °C in assay [6]. In addition, the shift in melting temperature (ΔTm) turned out to be 0.4 °C in assay [7]; 0.4 °C in assay [8]; 0.3 °C in assay [9]; 0.6 °C in [10]; 0.8 °C in assay [11]; 0.2 °C in [12]. The ΔTm in assay [13] is 0.7 °C; in assay [14], 0.4 °C; in assay [15], 0.9 °C; in [16], 0.2 °C; in assay [17] it was -0.2 °C.

On to `CCOc1cc2ncnc(Nc3cccc(Br)c3)c2cc1OCC`, for which the ΔTm came out at 0.7 °C in assay [1]; 0.6 °C in assay [2]; 2.7 °C in [3]; 0 °C in [4]; 2 °C in [5]; 1 °C in assay [6]. In addition, the shift in melting temperature (ΔTm) is 0.3 °C in assay [7]; 1.2 °C in assay [8]; -0.2 °C in assay [9]; 0.7 °C in assay [10]; 1 °C in assay [11]; -0.9 °C in assay [12]. Also, the ΔTm came to 3.8 °C in assay [13]; 0.9 °C in [14]; 2.9 °C in assay [15]; 0.6 °C in assay [16]; 1.5 °C in assay [17].

For `Nc1n[nH]c2nc3ccccc3nc12` [QUINOXALINE1], the ΔTm in assay [1] is 0.7 °C; in [2], -0.1 °C; in assay [3] it was 0.2 °C; in assay [4], 0.2 °C; in assay [5], 1.6 °C; in [6], 1.4 °C. The ΔTm in assay [7] is 0.5 °C; in [8] it was 0.7 °C; in [9], 0.4 °C; in assay [10] it was -0.3 °C; in [11], 0.7 °C; in assay [12] it was 0.5 °C. Also, the thermal shift (ΔTm) in assay [13] was 1.5 °C; in assay [14], 1.1 °C; in [15], 3.5 °C; in [16] it was 0.7 °C; in [17], 1.3 °C.

As to `O=C1NC(=O)c2c1c1c3ccccc3n3c1c1c2c2ccccc2n1C1CCC3O1`, the shift in melting temperature (ΔTm) in [1] was -0.4 °C; in assay [2], -0.2 °C; in assay [3], -0.3 °C; in assay [4], -0.4 °C; in assay [5], 3.3 °C; in assay [6], 1.7 °C. Further, the shift in melting temperature (ΔTm) was 0.5 °C in [7]; 0.2 °C in assay [8]; 0.3 °C in assay [9]; -0.3 °C in assay [10]; 0.7 °C in assay [11]; -0.1 °C in assay [12]. Also, the ΔTm in assay [13] was 0 °C; in assay [14] it was 1.7 °C; in [15], -0.4 °C; in assay [16], 0.1 °C; in assay [17], 2.1 °C.
